In ChEMBL document CHEMBL1201862, “PubChem BioAssay data set” (2004):
Activity calls are given as the source filed them.

Columns and labels:
[1] = molecular target: T1, Replicative DNA helicase DnaB (Mycobacterium tuberculosis, UniProt P9WMR3); assay: DnaB intein splicing inhibitors, dose response, biochemical, cell-free fluorescence (AID 449749); assay type: functional
T1 sequence (P9WMR3 whole entry): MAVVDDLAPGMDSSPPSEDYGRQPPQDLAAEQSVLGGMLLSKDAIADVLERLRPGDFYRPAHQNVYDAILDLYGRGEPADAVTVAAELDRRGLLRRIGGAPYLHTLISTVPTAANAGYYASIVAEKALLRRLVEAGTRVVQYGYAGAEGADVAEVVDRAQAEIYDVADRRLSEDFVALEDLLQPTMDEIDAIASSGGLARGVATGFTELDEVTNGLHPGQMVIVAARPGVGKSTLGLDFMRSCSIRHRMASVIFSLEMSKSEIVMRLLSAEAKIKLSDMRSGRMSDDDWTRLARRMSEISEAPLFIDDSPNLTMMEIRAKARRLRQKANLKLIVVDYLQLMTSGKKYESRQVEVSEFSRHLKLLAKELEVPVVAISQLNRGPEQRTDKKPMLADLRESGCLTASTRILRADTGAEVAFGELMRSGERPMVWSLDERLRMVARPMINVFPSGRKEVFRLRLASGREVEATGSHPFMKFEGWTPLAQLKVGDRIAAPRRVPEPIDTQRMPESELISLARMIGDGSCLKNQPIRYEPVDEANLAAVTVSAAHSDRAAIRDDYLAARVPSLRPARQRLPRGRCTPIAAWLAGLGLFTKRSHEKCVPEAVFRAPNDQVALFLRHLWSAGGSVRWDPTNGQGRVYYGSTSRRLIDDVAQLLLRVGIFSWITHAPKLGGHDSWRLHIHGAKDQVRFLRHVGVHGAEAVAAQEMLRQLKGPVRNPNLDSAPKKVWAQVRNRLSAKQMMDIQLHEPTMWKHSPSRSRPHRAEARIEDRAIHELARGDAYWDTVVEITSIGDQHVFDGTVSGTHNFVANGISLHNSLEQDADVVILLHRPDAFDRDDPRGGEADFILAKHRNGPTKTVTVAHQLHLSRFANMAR

Protein RecA = molecular target: T2, Protein RecA (Mycobacterium tuberculosis, UniProt P9WHJ3); assay: Fluorescence Cell-Free Homogeneous Dose Retest to Identify Inhibitors of RecA-Intein Splicing Activity. [Related pubchem assays (depositor defined):AID2097, AID2223, AID489010, AID492950]; assay type: functional
T2 sequence (P9WHJ3 whole entry): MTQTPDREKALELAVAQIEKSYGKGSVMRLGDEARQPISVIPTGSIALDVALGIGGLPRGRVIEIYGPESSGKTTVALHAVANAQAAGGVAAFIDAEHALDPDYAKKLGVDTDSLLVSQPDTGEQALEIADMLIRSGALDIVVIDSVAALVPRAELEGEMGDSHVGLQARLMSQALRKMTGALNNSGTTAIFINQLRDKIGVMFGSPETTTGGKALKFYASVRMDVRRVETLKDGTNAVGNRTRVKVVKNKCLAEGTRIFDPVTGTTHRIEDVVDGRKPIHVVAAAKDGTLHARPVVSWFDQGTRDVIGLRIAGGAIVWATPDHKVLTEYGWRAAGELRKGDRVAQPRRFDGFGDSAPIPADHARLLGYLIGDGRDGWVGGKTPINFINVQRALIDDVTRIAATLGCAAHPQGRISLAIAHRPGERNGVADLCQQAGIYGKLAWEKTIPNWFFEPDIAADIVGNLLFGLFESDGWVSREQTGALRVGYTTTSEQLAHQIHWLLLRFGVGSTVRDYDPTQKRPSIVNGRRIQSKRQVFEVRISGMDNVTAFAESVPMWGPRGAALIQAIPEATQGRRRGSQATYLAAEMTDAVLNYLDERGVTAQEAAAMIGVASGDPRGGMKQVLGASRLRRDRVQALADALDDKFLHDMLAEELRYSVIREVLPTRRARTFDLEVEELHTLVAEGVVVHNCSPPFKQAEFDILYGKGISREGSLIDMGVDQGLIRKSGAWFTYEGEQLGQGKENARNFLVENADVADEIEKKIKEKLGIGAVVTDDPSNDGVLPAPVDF

[2] = molecular target: T3, Sentrin-specific protease 8 (Homo sapiens, UniProt Q96LD8); assay type: functional
T3 sequence (Q96LD8 whole entry): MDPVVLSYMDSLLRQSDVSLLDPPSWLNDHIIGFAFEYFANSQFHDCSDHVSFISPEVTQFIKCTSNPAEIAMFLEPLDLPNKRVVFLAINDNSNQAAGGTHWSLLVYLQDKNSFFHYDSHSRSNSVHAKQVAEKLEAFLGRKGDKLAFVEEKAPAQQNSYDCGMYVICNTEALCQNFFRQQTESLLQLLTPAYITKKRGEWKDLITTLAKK

[3] = molecular target: T3, Sentrin-specific protease 8; assay type: functional; remark: listed apart in the source
cells [4] = assay type: functional, cell-based
cells [5] = assay type: functional, cell-based; remark: listed apart in the source
Nonstructural protein 1 = Nonstructural protein 1 (Influenza A virus, UniProt Q194T2); assay type: functional, Influenza A virus (A/California/07/2009(H1N1))
[6] = molecular target: Sentrin-specific protease 1 (Homo sapiens, UniProt Q9P0U3); assay: Dose response confirmation of small molecule inhibitors of the catalytic domain of the SUMO protease, SENP1 in a FRET assay.; assay type: functional; details: read-out: IC50_Mean
[7] = Luminescent dose response cell-based high throughput screening assay for inhibitors of the Janus kinase 2 mutant JAK2V617F. [Related pubchem assays: 1446 (Primary screen.), 1521 (Confirmation assay.), 1486 (Counter screen.)]; assay type: functional
[8] = microbe, parasite or virus in culture; assay type: functional; details: Mycobacterium tuberculosis
[9] = growth suppression of PTEN-null colon cells, dose response, cell-based, HCT116 PTEN knockout (AID 1047); assay type: functional;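 further: HCT116 colon tumor cells with PTEN knocked out; cells exposed to compound for 60 hours before readout; potency for loss of cell viability measured by luminescence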
[10] = growth suppression of beta-catenin-knockout colon cells, dose response, cell-based, HCT116, human colon tumor (AID 1045); assay type: functional;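 further: HCT116 colon tumor cells with beta catenin knocked out; cells exposed to compound for 60 hours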
[11] = miR-122 activators in hepatoma reporter cells, dose response, cell-based, Huh7 psiCHECK-miR122, Renilla luciferase, cherry-picked (AID 651956); assay type: functional;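 further: huh7 hepatoma cells stably carrying a psiCHECK-2 miR-122 sensor plasmid; renilla luciferase signal reporting endogenous miR-122 activity after 48 h compound exposure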
[12] = HEK293T cytotoxicity, dose response, cytotoxicity control for miR-122 modulator project, cell-based, inhibitor set, cherry-pick, set 2 (AID 720697); assay type: functional
[13] = HEK293T cytotoxicity, dose response, cytotoxicity control for miR-122 modulator project, cell-based, activator set, cherry-pick (AID 720690); assay type: functional;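 further: HEK293T human cells scored for general mammalian cytotoxicity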
Cytochrome P450 1A2 = molecular target: T4, Cytochrome P450 1A2 (Homo sapiens, UniProt P05177);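 further: PubChem cytochrome P450 panel assay, CYP1A2 panel member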
T4 sequence (P05177 whole entry): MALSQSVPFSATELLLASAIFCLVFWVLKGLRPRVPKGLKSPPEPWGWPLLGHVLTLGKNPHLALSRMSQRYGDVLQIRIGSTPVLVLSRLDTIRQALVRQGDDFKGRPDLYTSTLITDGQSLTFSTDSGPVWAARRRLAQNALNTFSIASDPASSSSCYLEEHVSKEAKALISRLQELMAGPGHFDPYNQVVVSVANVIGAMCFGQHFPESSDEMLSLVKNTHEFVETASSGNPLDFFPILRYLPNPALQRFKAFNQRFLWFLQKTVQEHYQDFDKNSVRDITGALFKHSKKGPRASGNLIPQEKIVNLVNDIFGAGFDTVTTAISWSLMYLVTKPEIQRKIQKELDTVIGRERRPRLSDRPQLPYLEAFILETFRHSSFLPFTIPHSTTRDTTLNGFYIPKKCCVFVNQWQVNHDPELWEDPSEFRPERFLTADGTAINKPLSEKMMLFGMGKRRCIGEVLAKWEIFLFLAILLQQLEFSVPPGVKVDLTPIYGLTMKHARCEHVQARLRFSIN

Cytochrome P450 3A4 = Cytochrome P450 3A4 (Homo sapiens, UniProt P08684);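 further: CYP3A4 tested as one member of a cytochrome P450 panel screen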
[14] = molecular target: T5, Delta-type opioid receptor (Homo sapiens, UniProt P41143); assay: HTS Image-Based Screen for Antagonists of the DOR Receptor. [Related pubchem assays (depositor defined):AID1777, AID1785, AID1786, AID2133]; assay type: functional
Mu-type opioid receptor = Mu-type opioid receptor (Homo sapiens, UniProt P35372); assay: HTS Image-Based Screen for Agonists of the MOR Receptor. [Related pubchem assays (depositor defined):AID1777, AID1785, AID1786, AID2133]; assay type: functional;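 further: imaging of beta-arrestin GFP recruitment into spots after receptor activation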
[15] = molecular target: T5, Delta-type opioid receptor; assay: HTS Image-Based Screen for Agonists of the DOR Receptor. [Related pubchem assays (depositor defined):AID1777, AID1786, AID2133]; assay type: functional
Beta-galactosidase [16] = molecular target: T6, Beta-galactosidase (Escherichia coli, UniProt Q8VNN2); assay: PubChem AID 485352; assay type: functional
[17] = molecular target: T7, Type-1 angiotensin II receptor (Homo sapiens, UniProt P30556); assay: AT1 receptor antagonists, dose response, selectivity assay for APJ receptor antagonist project, cell-based, uHTS hits (AID 463214); assay type: functional;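 further: antagonist potency against angiotensin II stimulated AT1 response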
T7 sequence (P30556 whole entry): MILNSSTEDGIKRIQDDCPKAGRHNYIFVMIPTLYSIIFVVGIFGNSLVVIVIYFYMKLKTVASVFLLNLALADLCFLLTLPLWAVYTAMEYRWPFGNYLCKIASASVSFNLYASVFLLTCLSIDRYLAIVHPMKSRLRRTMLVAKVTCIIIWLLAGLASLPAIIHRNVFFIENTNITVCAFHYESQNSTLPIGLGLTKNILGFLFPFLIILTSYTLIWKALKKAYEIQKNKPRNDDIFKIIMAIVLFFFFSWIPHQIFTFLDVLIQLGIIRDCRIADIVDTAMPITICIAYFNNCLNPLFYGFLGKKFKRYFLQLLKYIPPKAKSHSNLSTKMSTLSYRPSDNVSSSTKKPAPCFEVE

[18] = molecular target: T8, Kappa-type opioid receptor (Homo sapiens, UniProt P41145); assay type: functional
Beta-galactosidase [19] = molecular target: T6, Beta-galactosidase; assay type: functional
[20] = molecular target: T8, Kappa-type opioid receptor; assay type: functional; remark: listed apart in the source
[21] = molecular target: Glucose-6-phosphate 1-dehydrogenase (Homo sapiens, UniProt P11413); assay: human G6PD enzyme inhibitors, dose response, selectivity assay for P. falciparum G6PD inhibitor project, biochemical, fluorescence (AID 504792); assay type: functional
CHO = assay: cytotoxicity in TLR9-MyD88 CHO cells, dose response, cytotoxicity control for TLR9-MyD88 binding inhibitor project, cell-based, luminescence (AID 588339); assay type: functional, hamster; details: Cricetulus griseus;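 further: CHO cells stably coexpressing TLR9 and MyD88 fusions from primary screen; compound exposure lasted 48 hours before viability readout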
Vero = Vero cell cytotoxicity, cytotoxicity control for flavivirus capping enzyme inhibitors (AID 588742); assay type: functional; details: Chlorocebus sabaeus
Beta Lactamase [22] = molecular target: T9, Beta Lactamase (Pseudomonas aeruginosa, UniProt Q932Y6); assay: beta-lactamase reporter inhibitor potency, dose response, artefact control for TLR9-MyD88 binding inhibitor project, BLA reporter cells, FRET fluorescence (AID 588341); assay type: cell-based;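 further: cell based assay in CHO-K1 cells stably expressing beta-lactamase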
Genome polyprotein = Genome polyprotein (dengue virus type 2, UniProt P29990); assay: Dengue-2 NS5 methyltransferase inhibitors, primary screen, biochemical, confirmation dose response (AID 588689); assay type: functional
[23] = Fluorescence-based cell-based high throughput dose response assay for inhibitors of the interaction of nucleotide-binding oligomerization domain containing 2 (NOD2) and the receptor-interacting serine-threonine kinase 2 (RIPK2).; assay type: functional; details: Homo sapiens
Beta Lactamase [24] = molecular target: T9, Beta Lactamase; assay: beta-lactamase reporter inhibitor potency, dose response, artefact control for NOD2-RIPK2 interaction inhibitor project, BLA reporter cells, FRET fluorescence (AID 651552); assay type: functional, cell-based
[25] = NIH/3T3 fibroblast cytotoxicity, dose response, cytotoxicity control for T. cruzi growth inhibitor project, cell-based, cherry-pick samples, set 2 (AID 651817); assay type: functional; details: NIH3T3
[26] = molecular target: T10, Probable nicotinate-nucleotide adenylyltransferase (Staphylococcus aureus (strain N315), UniProt P65502); assay type: functional, Staphylococcus aureus subsp. aureus N315;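 on IC50 Mean: confirmatory dose-response retesting of NadD inhibitor hits first found in an ultra-high-throughput screen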
[27] = molecular target: T10, Probable nicotinate-nucleotide adenylyltransferase; assay type: functional, Staphylococcus aureus subsp. aureus N315; details: read-out: IC50_Mean
[28] = ARNT/TACC3 interaction disruptors, potency, confirmation, biochemical, AlphaScreen, cherry-picked samples (AID 651703); assay type: functional, Homo sapiens;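 further: His-tagged ARNT PAS-B domain paired with GST-TACC3 E629A dimer coactivator fragment; potency of inhibitors that break up the complex and lower AlphaScreen signal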

T6 sequence (Q8VNN2 whole entry): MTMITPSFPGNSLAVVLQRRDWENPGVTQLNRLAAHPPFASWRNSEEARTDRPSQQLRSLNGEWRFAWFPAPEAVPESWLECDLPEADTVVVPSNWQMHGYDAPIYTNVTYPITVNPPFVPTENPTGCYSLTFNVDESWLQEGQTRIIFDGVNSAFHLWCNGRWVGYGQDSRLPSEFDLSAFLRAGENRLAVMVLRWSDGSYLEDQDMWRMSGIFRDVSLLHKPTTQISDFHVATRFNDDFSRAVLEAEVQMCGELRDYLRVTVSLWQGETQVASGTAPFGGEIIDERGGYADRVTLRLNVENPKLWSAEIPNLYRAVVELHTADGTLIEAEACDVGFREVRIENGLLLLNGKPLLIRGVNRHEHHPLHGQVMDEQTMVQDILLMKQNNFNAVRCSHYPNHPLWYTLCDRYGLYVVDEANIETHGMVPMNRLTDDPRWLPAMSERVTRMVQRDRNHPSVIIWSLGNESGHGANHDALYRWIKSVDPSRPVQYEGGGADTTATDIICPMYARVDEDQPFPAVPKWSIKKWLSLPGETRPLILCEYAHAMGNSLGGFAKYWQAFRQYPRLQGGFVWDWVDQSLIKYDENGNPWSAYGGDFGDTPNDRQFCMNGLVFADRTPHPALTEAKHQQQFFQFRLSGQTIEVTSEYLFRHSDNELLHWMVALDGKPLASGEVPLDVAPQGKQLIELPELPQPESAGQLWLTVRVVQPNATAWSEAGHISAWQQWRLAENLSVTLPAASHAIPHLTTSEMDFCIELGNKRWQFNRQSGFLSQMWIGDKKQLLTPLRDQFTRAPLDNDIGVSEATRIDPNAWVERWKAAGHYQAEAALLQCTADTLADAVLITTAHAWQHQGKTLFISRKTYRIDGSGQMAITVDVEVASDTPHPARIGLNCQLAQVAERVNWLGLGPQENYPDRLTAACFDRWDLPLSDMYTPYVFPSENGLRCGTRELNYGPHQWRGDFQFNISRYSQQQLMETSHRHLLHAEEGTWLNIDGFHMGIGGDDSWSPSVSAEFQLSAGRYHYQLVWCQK
T9 sequence (Q932Y6 whole entry): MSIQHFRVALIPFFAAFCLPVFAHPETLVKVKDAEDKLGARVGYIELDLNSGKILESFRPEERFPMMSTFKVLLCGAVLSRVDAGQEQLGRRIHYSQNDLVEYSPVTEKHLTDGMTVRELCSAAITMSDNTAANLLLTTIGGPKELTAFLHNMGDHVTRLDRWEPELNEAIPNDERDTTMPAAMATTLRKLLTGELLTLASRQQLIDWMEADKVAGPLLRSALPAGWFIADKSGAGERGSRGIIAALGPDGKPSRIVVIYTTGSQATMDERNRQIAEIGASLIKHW
Sequence of Genome polyprotein (P29990 2492-3391 limits assumed): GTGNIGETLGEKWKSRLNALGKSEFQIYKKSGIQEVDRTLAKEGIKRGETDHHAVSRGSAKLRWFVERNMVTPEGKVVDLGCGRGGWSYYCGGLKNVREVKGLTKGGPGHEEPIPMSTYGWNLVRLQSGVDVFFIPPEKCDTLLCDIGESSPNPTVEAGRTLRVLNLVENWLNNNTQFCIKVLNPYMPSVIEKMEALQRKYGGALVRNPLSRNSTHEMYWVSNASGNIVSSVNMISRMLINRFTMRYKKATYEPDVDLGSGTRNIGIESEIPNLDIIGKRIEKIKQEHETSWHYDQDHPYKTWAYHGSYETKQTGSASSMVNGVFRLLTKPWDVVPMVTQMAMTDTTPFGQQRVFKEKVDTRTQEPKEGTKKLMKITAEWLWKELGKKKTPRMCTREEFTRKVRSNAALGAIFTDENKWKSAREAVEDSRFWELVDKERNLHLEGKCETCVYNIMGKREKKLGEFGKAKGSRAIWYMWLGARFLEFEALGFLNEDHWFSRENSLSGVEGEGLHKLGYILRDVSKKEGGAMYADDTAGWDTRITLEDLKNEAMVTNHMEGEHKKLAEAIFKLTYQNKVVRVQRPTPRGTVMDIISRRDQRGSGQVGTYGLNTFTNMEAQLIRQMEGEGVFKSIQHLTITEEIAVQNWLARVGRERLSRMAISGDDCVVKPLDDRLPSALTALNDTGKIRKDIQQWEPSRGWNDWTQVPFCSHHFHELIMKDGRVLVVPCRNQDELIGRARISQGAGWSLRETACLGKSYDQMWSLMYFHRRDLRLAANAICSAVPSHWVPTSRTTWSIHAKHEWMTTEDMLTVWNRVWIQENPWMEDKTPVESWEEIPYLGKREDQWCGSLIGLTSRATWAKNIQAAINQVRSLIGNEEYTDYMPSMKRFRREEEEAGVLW
T8 sequence (P41145 whole entry): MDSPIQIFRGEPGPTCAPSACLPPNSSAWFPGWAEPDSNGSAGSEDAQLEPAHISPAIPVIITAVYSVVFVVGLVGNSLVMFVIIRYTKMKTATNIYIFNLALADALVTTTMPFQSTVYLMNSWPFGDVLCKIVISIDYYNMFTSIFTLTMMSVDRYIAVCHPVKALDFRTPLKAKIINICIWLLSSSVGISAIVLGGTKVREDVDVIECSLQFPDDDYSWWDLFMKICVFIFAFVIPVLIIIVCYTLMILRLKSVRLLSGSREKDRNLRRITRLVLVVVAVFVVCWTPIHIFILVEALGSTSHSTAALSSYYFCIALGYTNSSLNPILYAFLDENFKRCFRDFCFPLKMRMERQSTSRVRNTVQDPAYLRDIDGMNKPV
T10 sequence (P65502 whole entry): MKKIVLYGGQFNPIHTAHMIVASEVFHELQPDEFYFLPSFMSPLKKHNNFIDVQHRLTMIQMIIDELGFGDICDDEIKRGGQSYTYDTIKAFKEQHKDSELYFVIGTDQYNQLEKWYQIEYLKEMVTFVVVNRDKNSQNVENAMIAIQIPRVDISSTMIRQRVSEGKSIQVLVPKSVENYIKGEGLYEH
T5 sequence (P41143 whole entry): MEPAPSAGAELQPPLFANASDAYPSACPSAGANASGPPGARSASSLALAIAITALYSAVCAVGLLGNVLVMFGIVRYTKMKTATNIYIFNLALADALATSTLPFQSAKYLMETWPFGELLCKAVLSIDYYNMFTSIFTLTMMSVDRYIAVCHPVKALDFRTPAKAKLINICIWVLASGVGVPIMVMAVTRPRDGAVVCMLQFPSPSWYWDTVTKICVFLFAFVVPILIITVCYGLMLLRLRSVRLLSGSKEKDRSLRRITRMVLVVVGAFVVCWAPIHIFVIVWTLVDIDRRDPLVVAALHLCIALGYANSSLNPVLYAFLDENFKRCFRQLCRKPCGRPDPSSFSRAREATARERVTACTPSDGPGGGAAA
Sequence of Nonstructural protein 1 (Q194T2 whole entry, the tested form may be a part): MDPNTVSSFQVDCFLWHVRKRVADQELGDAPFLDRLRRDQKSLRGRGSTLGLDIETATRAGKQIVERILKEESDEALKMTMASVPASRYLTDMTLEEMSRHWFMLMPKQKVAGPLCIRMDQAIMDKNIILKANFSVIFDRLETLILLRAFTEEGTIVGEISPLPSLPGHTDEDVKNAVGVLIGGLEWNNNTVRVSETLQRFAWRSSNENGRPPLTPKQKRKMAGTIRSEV
Sequence of Sentrin-specific protease 1 (Q9P0U3 whole entry, the tested form may be a part): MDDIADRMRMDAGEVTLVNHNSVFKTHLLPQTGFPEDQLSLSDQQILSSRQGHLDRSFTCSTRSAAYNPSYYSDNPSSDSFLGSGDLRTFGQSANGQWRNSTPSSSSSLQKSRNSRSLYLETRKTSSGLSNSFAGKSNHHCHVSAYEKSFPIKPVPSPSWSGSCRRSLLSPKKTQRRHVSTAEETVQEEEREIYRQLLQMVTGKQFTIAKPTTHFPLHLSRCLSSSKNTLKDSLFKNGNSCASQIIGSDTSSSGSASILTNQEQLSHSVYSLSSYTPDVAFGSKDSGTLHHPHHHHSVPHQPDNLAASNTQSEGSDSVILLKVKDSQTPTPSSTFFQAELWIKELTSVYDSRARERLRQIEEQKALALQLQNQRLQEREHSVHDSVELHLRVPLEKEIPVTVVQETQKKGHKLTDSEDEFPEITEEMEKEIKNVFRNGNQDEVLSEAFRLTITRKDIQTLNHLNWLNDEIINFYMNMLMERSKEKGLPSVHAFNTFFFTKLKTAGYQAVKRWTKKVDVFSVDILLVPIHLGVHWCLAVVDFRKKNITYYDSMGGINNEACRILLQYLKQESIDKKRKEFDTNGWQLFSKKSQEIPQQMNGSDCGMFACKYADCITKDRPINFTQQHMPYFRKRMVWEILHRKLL
Sequence of Cytochrome P450 3A4 (P08684 whole entry): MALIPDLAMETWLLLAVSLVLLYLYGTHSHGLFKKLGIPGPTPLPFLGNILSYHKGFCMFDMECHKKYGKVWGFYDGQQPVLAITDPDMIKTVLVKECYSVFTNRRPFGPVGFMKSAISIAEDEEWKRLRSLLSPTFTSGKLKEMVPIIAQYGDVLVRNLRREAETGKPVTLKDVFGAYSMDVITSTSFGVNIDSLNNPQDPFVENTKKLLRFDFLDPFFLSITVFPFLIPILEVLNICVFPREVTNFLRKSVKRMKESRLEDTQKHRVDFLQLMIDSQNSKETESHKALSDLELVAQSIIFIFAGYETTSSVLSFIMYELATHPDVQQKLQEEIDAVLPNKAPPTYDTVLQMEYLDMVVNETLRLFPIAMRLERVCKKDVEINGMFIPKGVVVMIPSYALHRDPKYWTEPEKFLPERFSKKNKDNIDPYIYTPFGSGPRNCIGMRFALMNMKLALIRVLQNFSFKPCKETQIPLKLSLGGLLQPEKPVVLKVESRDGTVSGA
Sequence of Mu-type opioid receptor (P35372 whole entry): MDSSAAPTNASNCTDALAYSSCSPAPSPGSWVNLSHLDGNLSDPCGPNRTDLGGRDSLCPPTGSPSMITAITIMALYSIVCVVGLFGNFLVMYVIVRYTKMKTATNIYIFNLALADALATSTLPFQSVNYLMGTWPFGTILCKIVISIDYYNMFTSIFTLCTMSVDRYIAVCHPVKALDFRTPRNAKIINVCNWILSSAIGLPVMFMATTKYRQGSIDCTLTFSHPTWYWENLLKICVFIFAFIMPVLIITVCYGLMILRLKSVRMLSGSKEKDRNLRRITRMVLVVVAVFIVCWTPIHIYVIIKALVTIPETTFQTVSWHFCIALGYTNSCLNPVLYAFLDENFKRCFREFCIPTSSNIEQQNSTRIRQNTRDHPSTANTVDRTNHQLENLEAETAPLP

CC1=NN(c2ccc(C)cc2C)C(=O)C1C(c1cccc(O)c1)C1C(=O)N(c2ccc(C)cc2C)N=C1C (stereo unspecified)
AC50 [1]: 1.09 µM (active)
EC50 (Protein RecA): 0.524 µM (active)
IC50 [2]: 12.6 µM (active)
IC50 [3]: 30 µM (active)

CCOC(=O)/C(C#N)=C/C=C1\C=Cc2ccccc2N1CC
EC50 (cells [4]): > 350 µM (not active)
EC50 (cells [5]): > 350 µM (not active)
IC50 (Nonstructural protein 1): > 100 µM (active)
IC50 [6]: 6.27 µM (active)

CCCn1c(CC)nc([N+](=O)[O-])c1S(=O)(=O)c1ccccc1
IC50 [7]: 0.996 µM (active)
CC50 [8]: 13.1 µM (active)
EC50 [9]: 5.85 µM (active)
EC50 [10]: 6.09 µM (active)
AC50 [1]: > 380 µM (inactive)
EC50 (Protein RecA): > 380 µM (inactive)
AC50 [11]: 24.8 µM (active)
AC50 [12]: 4.03 µM (active)
AC50 [13]: 7.65 µM (active)
AC50 (Cytochrome P450 1A2): 22.4 µM (inconclusive)
AC50 (Cytochrome P450 3A4): 25.1 µM (inconclusive)

CCC(=O)OCCNc1cc(Sc2nc3ccccc3s2)c2nonc2c1[N+](=O)[O-]
IC50 [14]: > 32 µM (inactive)
EC50 (Mu-type opioid receptor): > 32 µM (inactive)
EC50 [15]: < 0.5 µM (active)
EC50 (Beta-galactosidase [16]): > 40 µM (inactive)
IC50 [17]: 3.51 µM (active)
IC50 [18]: 8.16 µM (active)
EC50 (Beta-galactosidase [19]): > 31.5 µM (inactive)
IC50 [20]: > 32 µM
IC50 [21]: > 80 µM (inactive)
IC50 (CHO): 3.25 µM (active)
AC50 [1]: 2.36 µM (active)
CC50 (Vero): 18.5 µM (active)
EC50 (Protein RecA): 0.572 µM (active)
IC50 (Beta Lactamase [22]): 10.5 µM (inactive)
IC50 (Genome polyprotein): 29.6 µM (active)
IC50 [23]: 1.53 µM (active)
IC50 (Beta Lactamase [24]): 12.2 µM (inactive)

C[C@@H]1CN([C@@H](C)CO)C(=O)Cc2cc(NS(=O)(=O)c3ccc(Cl)cc3)ccc2O[C@H]1CN(C)S(=O)(=O)c1ccc(Cl)cc1
AC50 [25]: 19.4 µM (active)

O=C(O)COc1ccccc1/C=N/NC(=O)c1cc(-c2ccc(Cl)cc2)nc2ccccc12
IC50 (Genome polyprotein): 39.5 µM (active)
IC50 [26]: 5.1 µM (active)
IC50 [27]: 34.2 µM (active)
AC50 [28]: 75.2 µM (active)
